For series [1], the system named is avidin, positive initiator (+). Description: biotin binding rate, avidin-positive initiator. An excerpt: (§1) Avidin: Avidin (Avi) is a tetrameric protein (homo-4-mer) that is approximately 66 kDa in its tetrameric form and is found in the egg whites of birds, reptiles, and amphibians. Its highly specific activity arises from binding strongly to biotin and this binding event is one of the strongest noncovalent interactions known, making avidin extremely useful for biochemical assays/probes and protein purification chemistries. Each sub-unit of avidin can bind to one biotin molecule. In agreement with CT and Lyz, the number of initiator modifications when using the positive initiator was less than that achieved with neutral initiator (4.3 versus 7.9). The activities of avidin samples were measured next using two different techniques (TABLE 6). Biotin binding rates were determined kinetically and total equilibrium biotin binding were determined spectophotometrically using 4′-hydroxyazobenzene-2-carboxylic acid (HABA) dye. Since the avidin-biotin binding is so strong, the displacement of HABA by biotin in the active site can be measured and the amount of bound biotin can be determined by the decrease in absorbance at 500 nm. The biotin binding rate of Avi-neutral initiator was decreased to 0.48 s^−1 from 105.2 s^−1 for native avidin.

In series [2] the test system is avidin, neutral initiator (N)-pCBMA. Nature of the series: biotin binding rate, avidin (N)-pCBMA.
Text: as §1

For the next series, the system named is avidin, native. Nature of the series: biotin binding rate, native avidin.
Text: as §1

Series [3] deals with avidin, positive initiator (+)-pCBMA. Description: biotin binding rate, avidin (+)-pCBMA.
Text: as §1

Series [4] has as its system Uricase from Candida sp., positive initiator (+)-pSMA. Description: Michaelis-Menten kinetics, uric acid oxidation, uricase (+)-pSMA. The class given is biochemical. Conditions: pH 8.5, 37° C. Here is the method: (§2) CT and Lysozyme were used as received. AChE and Uricase were dialyzed in 25 mM sodium phosphate (pH 7.0) using a 25 kDa molecular weight cutoff dialysis tube in a refrigerator for 24 hours and then lyophilized. Copper (II) chloride, sodium ascorbate, 1,1,4,7,10,10-hexamethyltriethylenetetramine (HMTETA), 2-bromo-2-methylpropionyl bromide, 3-(dimethylamino)-1-propylamine, N,N′-diisopropylcarbodimine, fluorescamine, acetylthiocholine iodide, 5,5′-dithiobis(2-nitrobenzoic acid) (DTNB) were purchased from Sigma Aldrich. 4-bromobutyric acid and N-hydroxysuccinimide were purchased from TCI USA (Portland, OR). Micro BCA assay kit was purchased from Thermo Fisher Scientific.
(§3) Uricase: 200 μL of NHS-functionalized ATRP initiator solution in DMSO (100 μmol, 34 mg for neutral and 52 mg for positive initiator, respectively) was added to Uricase solution (20 mg of […] Uricase in 20 mL of 100 mM phosphate (pH 7.0)) and stirred at room temperature for 2 hours. […] The concentration of Uricase initiator conjugates was determined using a Micro BCA Assay Kit (ThermoFisher Scientific).
(§4) CT-pCBMA and pSMA conjugate synthesis: A solution of monomer (230 mg for CBMA and 246 mg for SMA, 1.0 mmol respectively) and CT-initiator (23 mg for neutral and 25 mg for positive initiator, 10 μmol of initiator) in 100 mM sodium phosphate (20 mL, pH 7) was sealed and bubbled with nitrogen gas in an ice bath for 30 minutes. […] Conjugate CT content was determined by BCA assay as described elsewhere (Lee et al. 2005, supra). […]
(§5) Uricase: Uric acid (0-400 μL of 300 μM in 50 mM sodium tetraborate (pH 8.5)) was mixed with 50 mM sodium phosphate (990-580 μL, pH 8.5). […] The initial rate was monitored by recording the decreasing in absorbance as 290 nm using an UV-VIS absorbance spectrometer with a temperature controlled cell folder at 37° C. Michaelis-Menten parameters were determined by nonlinear curve fitting of initial rate versus substrate concentration plots using Prism 7 software (GraphPad).

For series [5], the system named is Uricase from Candida sp., positive initiator (+). Description: Michaelis-Menten kinetics, uric acid oxidation, uricase-positive initiator. The class given is biochemical. Conditions: pH 8.5, 37° C. As for the experimental part:
as §2
(§6) Uricase: 200 μL of NHS-functionalized ATRP initiator solution in DMSO (100 μmol, 34 mg for neutral and 52 mg for positive initiator, respectively) was added to Uricase solution (20 mg of […] Uricase in 20 mL of 100 mM phosphate (pH 7.0)) and stirred at room temperature for 2 hours. Uricase-initiator conjugates were dialyzed in 25 mM sodium phosphate (pH 7.0) using a 25 kDa molecular cutoff dialysis tube in a refrigerator for 24 hours and then lyophilized. The concentration of Uricase initiator conjugates was determined using a Micro BCA Assay Kit (ThermoFisher Scientific).
(§7) Uricase: Uric acid (0-400 μL of 300 μM in 50 mM sodium tetraborate (pH 8.5)) was mixed with 50 mM sodium phosphate ([…], pH 8.5). Native, initiator and polymer conjugate solution (10 μL, 20 μM of Uricase) was added to the substrate solution. The initial rate was monitored by recording the decreasing in absorbance as 290 nm using an UV-VIS absorbance spectrometer with a temperature controlled cell folder at 37° C. Michaelis-Menten parameters were determined by nonlinear curve fitting of initial rate versus substrate concentration plots using Prism 7 software (GraphPad).

The subject of series [6] is Uricase from Candida sp., neutral initiator (N)-pCBMA. Nature of the series: Michaelis-Menten kinetics, uric acid oxidation, uricase (N)-pCBMA. The class given is biochemical. Conditions: pH 8.5, 37° C. As for the experimental part: as §2, §3, §4, §5
The subject of series [7] is Uricase from Candida sp., neutral initiator (N)-pSMA. Description: Michaelis-Menten kinetics, uric acid oxidation, uricase (N)-pSMA. The class given is biochemical. The note with it: pH 8.5, 37° C. As for the experimental part: as §2, §3, §4, §5
For series [8], the system named is Uricase from Candida sp., neutral initiator (N). Nature of the series: Michaelis-Menten kinetics, uric acid oxidation, uricase-neutral initiator. Conditions: pH 8.5, 37° C. The class given is biochemical. As for the experimental part:
as §2, §6, §7

Series [9] relates to Uricase from Candida sp., positive initiator (+)-pCBMA. Nature of the series: Michaelis-Menten kinetics, uric acid oxidation, uricase (+)-pCBMA. The class given is biochemical. The note with it: pH 8.5, 37° C. Here is the method: as §2, §3, §4, §5
Series [10] concerns Uricase from Candida sp., native. Nature of the series: Michaelis-Menten kinetics, uric acid oxidation, native uricase. The class given is biochemical. Conditions: pH 8.5, 37° C. As for the experimental part: as §2, §7
Series [11] has as its system T1, C[C@H](NC(=O)CCC(=O)O)C(=O)N[C@@H](C)C(=O)N1CCC[C@H]1C(=O)N[C@@H](Cc1ccccc1)C(=O)Nc1ccc([N+](=O)[O-])cc1.
T1 construct: mature A, B and C chains of chymotrypsinogen A; unmodified
Description: Michaelis-Menten kinetics, Suc-AAPF-pNA hydrolysis, native CT. The class given is biochemical, bovine. The note with it: other: pH 8, 37° C. As for the experimental part:
as §2
CT: N-succinyl-Ala-Ala-Pro-Phe-p-nitroanilide (Suc-AAPF-pNA; SEQ ID NO:1) was used as a substrate for CT. Substrate (0-20 mg/mL in DMSO, 30 μL) was added to a 1.5 mL cuvette with sodium phosphate buffer (pH 8, 100 mM). Native CT, CT-initiators, and CT-polymers (0.1 mg/mL protein, 4 μM, 10 μL) was added to the cuvette with substrate and buffer. The initial substrate hydrolysis rate was measured in triplicate by recording the increase in absorbance at 412 nm over the first 60 seconds after mixing using a Lambda 2 Perkin Elmer ultraviolet-visible spectrometer equipped with a temperature-controlled cell holder at 37° C. Michaelis-Menten parameters were determined using nonlinear curve fitting of initial hydrolysis rate versus substrate concentration in GraphPad.
Michaelis-Menten kinetics were measured at pH 8 and 37° C. using Succinyl-Ala-Ala-Pro-Phe-p-nitroanilide (Suc-AAPF-pNA; SEQ ID NO:1), a hydrophobic and negatively charged substrate for CT that binds to the hydrophobic S1 binding pocket and is then cleaved by the catalytic triad (Ser 195, His 57, Asp 102). […] The observed decrease in KM upon neutral initiator attachment could have been the result of the hydrophobicity of the initiator. The partition coefficient (log D) of a lysine side chain at pH 8.0 is −1.00. After covalent attachment of the neutral initiator, the log D value of the new product rose to 1.82. […]

In the case of `O=C(O)CCCC[C@@H]1SC[C@@H]2NC(=O)N[C@@H]21` [biotin], in series [1] (Avi-positive initiator vs Avi-neutral initiator), the “increase in biotin binding rate compared to Avi-neutral initiator” value was determined as 1.7 fold. In addition, the biotin binding rate in series [1] (avidin (+)) is 1.69 ± 0.04 s⁻¹; in series [2] it was 0.23 ± 0.07 s⁻¹; with avidin, native, 92.5 ± 14.1 s⁻¹; in [3], 1.64 ± 0.08 s⁻¹.
Broadly, the kcat is the maximal rate divided by the concentration of active sites. As a reminder, the kcat/KM is the second-order rate constant that governs catalysis at low substrate concentration. As usually defined, the Km is the concentration of substrate that gives half-maximal velocity. Take `O=c1[nH]c(=O)c2[nH]c(=O)[nH]c2[nH]1` [uric acid]: the KM entry in [4], in series [6] and in [7] was “undetectable” in each case. Moreover, the kcat entry was “undetectable” in [4]; 2.14 ± 0.04 s⁻¹ in [5]; “undetectable” in series [6]; “undetectable” in [7]; 0.18 ± 0.01 s⁻¹ in series [8]; 0.03 ± 0.003 s⁻¹ in [9]. In series [10], the kcat is 3.42 ± 0.05 s⁻¹. The kcat/KM entry was “undetectable” in series [4]; 84000 ± 5000 M⁻¹ s⁻¹ in [5]; “undetectable” in series [6]; “undetectable” in [7]; 2000 ± 600 M⁻¹ s⁻¹ in [8]; 1000 ± 500 M⁻¹ s⁻¹ in series [9]. The kcat/KM in series [10] worked out at 266000 ± 13000 M⁻¹ s⁻¹. Besides, the Km in series [5] worked out at 25.4 ± 1.4 µM; in series [8] it was 119 ± 9.7 µM; in series [9] it was 22 ± 7.6 µM; in series [10] it was 12.9 ± 0.6 µM.
Broadly, the kcat/Km is the second-order rate constant that governs catalysis at low substrate concentration. “α-chymotrypsin (CT) from bovine pancreas (type II), native (Bos taurus)”: in series [11], the Km amounted to 107 ± 5 µM, the catalytic constant (kcat) turned out to be 26.6 ± 0.3 s⁻¹ and the kcat/Km is 250000 ± 10000 M⁻¹ s⁻¹.

The record behind these values is US12053529B2, “Amino-reactive positively charged ATRP initiators that maintain their positive charge during synthesis of biomacro-initiators” (Carnegie Mellon University, priority 2018, dated 2024).
